Reference: US20140343017A1, “PYRROLE COMPOUND” (Kabushiki Kaisha Yakult Honsha, priority 2012, published 2014)
Where a name gives a salt, the structure may show the parent alone. Read-outs that look alike come from different tables or passages of the source.

Assays:
[1] = test system: human non-small cell lung cancer A549 cells; test: Inhibitory effect on growth of human cancer cells (in vitro), WST-8; format: cell-based; details: 96 hours culture
Outline: (§1)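 Cells seeded at 1000 cells/well in RPMI1640 with 10% FBS, compounds added after overnight culture, then 96 h exposure. Viability by WST-8, about 1 h at 37 °C, 5% CO2, absorbance read at 450 nm.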

[2] = test system: human colorectal cancer HCT116 cells; test: as above; format: cell-based; details: 96 hours culture
Outline: as §1

[3] = test system: human colorectal cancer HT-29 cells; test: as above; format: cell-based; details: 96 hours culture, read-out: IC50 (nM) HT29
Outline: as §1

[4] = test system: human lung cancer NCI-H460 xenograft tumor; test: Antitumor effect on growth of human lung cancer NCI-H460 xenograft tumor (in vivo); set-up: species or system BALB/c nude mice; details: Mus musculus, NCI-H460, iv, 528 h, tail vein, excised tumor weight Day 22, read-out: Inhibition Rate (%)
Protocol: Each compound of the present invention was studied for its in vivo antitumor effect using human lung cancer NCI-H460 cell-transplanted mice. An NCI-H460 cell suspension containing 2×10^6 cells was subcutaneously transplanted in an amount of 0.1 mL/mouse to the left groin areas of 6-week-old male BALB/c nude mice. The mice were further raised for approximately 1 week to 10 days and divided into groups (4 mice per group) having equal estimated tumor volumes at the point in time when the tumor size reached approximately 100 to 200 mm^3 (Day 1). Each administration sample was administered at a dose of 10 mL/kg into the tail vein of the mice. The dose and administration schedule of each compound were as described in Table 3. At Day 22, tumor was excised from each mouse. The tumor growth inhibition rate (IR: Inhibition Rate) was calculated from the weight of the excised tumor according to the expression shown below. The Dunnett's test was used in the significant difference test.
Tumor growth inhibition rate (Inhibition Rate, %)=(1−(Excised tumor weight of the administration group)/(Excised tumor weight of the control group))×100

[5] = test system: multidrug-resistant line MES-SA/Dx5 cells; test: Inhibitory effect on growth of multidrug-resistant cell line (in vitro); format: cell-based, human; details: for IC50: Homo sapiens, MES-SA/Dx5 cells, 48 hours culture, WST-8; for Resistance rate: IC50 value (MES-SA/Dx5)/IC50 value (MES-SA)
Excerpt: (§2) Each compound of the present invention was studied for its effect on the growth of a multidrug-resistant cell line. A drug efflux pump called P-glycoprotein is well known to be involved in the drug resistance mechanism of the multidrug-resistant line MES-SA/Dx5 used in this experiment. Accordingly, in this experiment, paclitaxel and vincristine, which are proven substrates of P-glycoprotein, were used as control drugs. Human uterus cancer MES-SA cells and their multidrug-resistant line MES-SA/Dx5 cells were suspended in a medium and inoculated at a cell density of 2000 cells/50 μL/well to a 96-well plate. After overnight culture, each test sample diluted with a medium was added thereto at a concentration of 50 μL/well, and the cells were further cultured for 48 hours. After the completion of culture, WST-8 was added thereto at a concentration of 10 μL/well, and the cells were cultured at 37° C. for approximately 1 hour under 5% CO2 conditions, followed by measurement of absorbance at a wavelength of 450 nm. […] The resistance rate was calculated according to the following expression:
(§3) Resistance rate=IC50 value (MES-SA/Dx5)/IC50 value (MES-SA)

[6] = test system: Human uterus cancer MES-SA cells; test: Inhibitory effect on growth of multidrug-resistant cell line, parent line (in vitro); format: cell-based; details: 48 hours culture, WST-8
Excerpt: as §2, §3

[7] = Days 1, 3, 5, 8, 10, 12, 15, 17, 19
[8] = Days 1, 3, 8, 10, 12, 15, 17, 19

SMILES | IC50 ([1]; Homo sapiens, A549, 96 h) [nM] | IC50 ([2]; Homo sapiens, HCT-116, 96 h) [nM] | IC50 ([3]; Homo sapiens, HT-29, 96 h) [nM] | other results
Cc1[nH]c(-c2nnn(CCO)n2)c(C)c1C(=O)c1cccc(Br)c1 [Compound 102, (3-bromophenyl)(5-(2-(2-hydroxyethyl)-2H-tetrazol-5-yl)-2,4-dimethyl-1H-pyrrol-3-yl)methanone] | 19.3 | 9.5 | 8.7 | IC50 [5]: 4.3 nM; Resistance rate [5]: 1.1; IC50 [6]: 3.8 nM; inhibition in vivo at 12.5 mg/kg [4, 7]: 43.4%; inhibition in vivo at 25 mg/kg [4, 7]: 61.1%; inhibition in vivo at 37.5 mg/kg ([4]; 37.5 mg/kg, Days 1, 3, 5, 8, 10, 12, 15, 17, 19): 80.5%; inhibition in vivo at 40 mg/kg ([4]; 40 mg/kg, Days 1, 5, 9): 96.5%
COc1cccc(C(=O)c2c(C)[nH]c(-c3nnn(CCO)n3)c2C)c1 [Compound 107] | 54.9 | 27.4 | 16.1 | inhibition in vivo at 25 mg/kg [4, 7]: 32.6%
COc1ccc(Br)cc1C(=O)c1c(C)[nH]c(-c2nnc(C3CC3)o2)c1C [Compound 240, (5-bromo-2-methoxyphenyl)(5-(5-cyclopropyl-1,3,4-oxadiazol-2-yl)-2,4-dimethyl-1H-pyrrol-3-yl)methanone] | 2.1 | 1.9 | 1.1 | inhibition in vivo at 12.5 mg/kg [4, 7]: 33.2%
COc1ccc(C(=O)c2c(CO)[nH]c(-c3nnc(C4CC4)o3)c2C)cc1Br [Compound 266, (3-bromo-4-methoxyphenyl)(5-(5-cyclopropyl-1,3,4-oxadiazol-2-yl)-2-(hydroxymethyl)-4-methyl-1H-pyrrol-3-yl)methanone] | 4.7 | 1.6 | 2.7 | inhibition in vivo at 20 mg/kg [4, 7]: 39.4%
COc1ccc(C(=O)c2c(C(F)F)[nH]c(-c3nnc(C4CC4)o3)c2C)cc1Br [Compound 267, (3-bromo-4-methoxyphenyl) (5-(5-cyclopropyl-1,3,4-oxadiazol-2-yl)-2-(difluoromethyl)-4-methyl-1H-pyrrol-3-yl)methanone] | 13 | 39 | 10.7 | inhibition in vivo at 20 mg/kg [4, 7]: 35.6%
COc1ccc(C(=O)c2c(C(C)O)[nH]c(-c3nnc(C4CC4)o3)c2C)cc1Br (centres unmarked) [Compound 268, (3-bromo-4-methoxyphenyl)(5-(5-cyclopropyl-1,3,4-oxadiazol-2-yl)-2-(1-hydroxyethyl)-4-methyl-1H-pyrrol-3-yl)methanone] | 4.1 | 2.5 | 5.2 | inhibition in vivo at 20 mg/kg [4, 7]: 41.2%
CCn1nnc(-c2[nH]c(C)c(C(=O)c3cccc(OCCN)c3)c2C)n1 [Compound 296, (3-(2-aminoethoxy)phenyl)(5-(2-ethyl-2H-tetrazol-5-yl)-2,4-dimethyl-1H-pyrrol-3-yl)methanone hydrochloride] | – | – | – | IC50 ([1]; hydrochloride): 637 nM; IC50 ([2]; hydrochloride): 208 nM; IC50 ([3]; hydrochloride): 198 nM
Cc1[nH]c(-c2nnn(CCOC(=O)CN)n2)c(C)c1C(=O)c1cccc(Br)c1 [Compound 297, 2-(5-(4-(3-bromobenzoyl)-3,5-dimethyl-1H-pyrrol-2-yl)-2H-tetrazol-2-yl)ethyl 2-aminoacetate hydrochloride] | – | – | – | IC50 ([1]; hydrochloride): 12.2 nM; IC50 ([2]; hydrochloride): 7.3 nM; IC50 ([3]; hydrochloride): 8.2 nM
CCn1nnc(-c2[nH]c(C)c(C(=O)c3ccc(OCCN)c(Br)c3)c2C)n1 [Compound 302, (4-(2-aminoethoxy)-3-bromophenyl)(5-(2-ethyl-2H-tetrazol-5-yl)-2,4-dimethyl-1H-pyrrol-3-yl)methanone hydrochloride] | – | – | – | IC50 ([1]; hydrochloride): 47.4 nM; IC50 ([2]; hydrochloride): 35 nM; IC50 ([3]; hydrochloride): 33 nM
CC[C@]1(O)C[C@H]2CN(CCc3c([nH]c4ccccc34)[C@@](C(=O)OC)(c3cc4c(cc3OC)N(C=O)[C@H]3[C@@](O)(C(=O)OC)[C@H](OC(C)=O)[C@]5(CC)C=CCN6CC[C@]43[C@@H]65)C2)C1 [Vincristine, vincristine, reference compound] | – | – | – | IC50 [5]: 2440 nM; Resistance rate [5]: 67.5; IC50 [6]: 36.2 nM

More lines, main results first:

IC50 ([1]; Homo sapiens, A549, 96 h) [nM] | IC50 ([2]; Homo sapiens, HCT-116, 96 h) [nM] | IC50 ([3]; Homo sapiens, HT-29, 96 h) [nM] | SMILES | other results
2.4 | 4.1 | 3.5 | CCn1nnc(-c2[nH]c(C)c(C(=O)c3cccc(Br)c3)c2C)n1 [Compound 97, (3-bromophenyl)(5-(2-ethyl-2H-tetrazol-5-yl)-2,4-dimethyl-1H-pyrrol-3-yl)methanone] | inhibition in vivo at 30 mg/kg ([4]; 30 mg/kg, Days 1, 3, 5, 8, 10, 12, 15, 17, 19): 31.2%
9.2 | 2 | 1 | CCn1nnc(-c2[nH]c(C)c(C(=O)c3ccc(OC)c(Br)c3)c2C)n1 [Compound 109, (3-bromo-4-methoxyphenyl)(5-(2-ethyl-2H-tetrazol-5-yl)-2,4-dimethyl-1H-pyrrol-3-yl)methanone] | inhibition in vivo at 25 mg/kg [4, 8]: 29%
5.1 | 1.1 | 1 | CCc1nnc(-c2[nH]c(C)c(C(=O)c3cccc(Br)c3)c2C)o1 [Compound 173, (3-bromophenyl)(5-(5-ethyl-1,3,4-oxadiazol-2-yl)-2,4-dimethyl-1H-pyrrol-3-yl)methanone] | inhibition in vivo at 10 mg/kg [4, 7]: 40.2%
4.3 | 2.5 | 2.1 | CCc1nnc(-c2[nH]c(C)c(C(=O)c3cccc(OC)c3)c2C)o1 [Compound 193, (5-(5-ethyl-1,3,4-oxadiazol-2-yl)-2,4-dimethyl-1H-pyrrol-3-yl) (3-methoxyphenyl)methanone] | inhibition in vivo at 10 mg/kg [4, 8]: 33.9%
36.5 | 53.8 | 32.5 | COc1ccc(C(=O)c2c(C=O)[nH]c(-c3nnc(C4CC4)o3)c2C)cc1Br [Compound 263, 3-(3-bromo-4-methoxybenzoyl)-5-(5-cyclopropyl-1,3,4-oxadiazol-2-yl)-4-methyl-1H-pyrrole-2-carboaldehyde] | inhibition in vivo at 50 mg/kg ([4]; 50 mg/kg, Days 1, 3, 5, 8, 10, 12, 15, 17, 19): 59.6%
167 | 184 | 123 | Cc1[nH]c(-c2nnn(CCN)n2)c(Br)c1C(=O)c1cccc(Br)c1 [Compound 290, (5-(2-(2-aminoethyl)-2H-tetrazol-5-yl)-4-bromo-2-methyl-1H-pyrrol-3-yl)(3-bromophenyl)methanone] | –
509 | 957 | 460 | CNC(=O)c1[nH]c(-c2nnn(CCOC(C)=O)n2)c(C)c1C(=O)c1ccc(OC)c(Br)c1 [Compound 295, 2-(5-(4-(3-bromo-4-methoxybenzoyl)-3-methyl-5-(methylcarbamoyl)-1H-pyrrol-2-yl)-2H-tetrazol-2-yl)ethyl acetate] | –
